Results taken from patent publication US7691858B2, “Kinase inhibitors and methods of use thereof” (TargeGen, Inc., priority 2006, dated 2010).
Entries after “also recorded” stand apart in the source; their conditions may differ.

Columns and labels:
JAK3 = target: T1, JAK3 (Homo sapiens, UniProt P52333); assay: Kinase panel screen; assay type: biochemical; conditions: Compound I and ATP 10 μM
T1 construct: purchased Upstate USA or Invitrogen (contract screening service)

ZAP-70 = target: T2, ZAP-70 (Homo sapiens, UniProt P43403); assay: Kinase panel screen; assay type: biochemical; conditions: Compound I and ATP 10 μM
T2 construct: purchased Upstate USA or Invitrogen (commercial screening service)

FGFR1 = target: T3, FGFR1 (Homo sapiens, UniProt P11362); assay: Kinase panel screen; assay type: biochemical; conditions: Compound I and ATP 10 μM
T3 construct: purchased Upstate USA or Invitrogen (contract screening service)

VEGF-induced edema = assay: Miles assay, VEGF as agonist; assay type: in vivo, Sprague-Dawley rats
Protocol: A rodent model of vascular edema, the Miles assay, was used to screen compounds for their ability to inhibit VEGF-induced edema. […] Sprague-Dawley rats were first injected IV with vehicle alone or test agent, followed by IV injection of Evans blue dye, followed by intradermal injections of saline and VEGF (200 ng/injection site) along both shaved flanks.

SAPK2a = target: T4, SAPK2a (Homo sapiens, UniProt Q16539); assay: Kinase panel screen; assay type: biochemical; conditions: Compound I and ATP 10 μM
T4 construct: purchased Upstate USA or Invitrogen (commercial screening service)

MAPK3 = target: T5, MAPK3 (Homo sapiens, UniProt P27361); assay: Kinase panel screen; assay type: biochemical; conditions: Compound I at 1 μM and ATP at the apparent Km
T5 construct: purchased Upstate USA or Invitrogen (commercial screening service)

PKC0 = target: T6, PKC0 (Homo sapiens, UniProt Q04759); assay: Kinase panel screen; assay type: biochemical; conditions: Compound I and ATP 10 μM
T6 construct: purchased Upstate USA or Invitrogen (commercial screening service)

IGF-1R = target: T7, IGF-1R (Homo sapiens, UniProt P08069); assay: Kinase panel screen; assay type: biochemical; conditions: Compound I and ATP 10 μM
T7 construct: purchased Upstate USA or Invitrogen (commercial screening service)

MKK7b = target: T8, MKK7b (Homo sapiens, UniProt O14733); assay: Kinase panel screen; assay type: biochemical; conditions: Compound I and ATP 10 μM
T8 construct: purchased Upstate USA or Invitrogen (contract screening service)

Rsk1 = target: T9, Rsk1 (Rattus norvegicus, UniProt Q63531); assay: Kinase panel screen; assay type: biochemical; conditions: Compound I and ATP 10 μM
T9 construct: purchased Upstate USA or Invitrogen (commercial screening service)

TAK1 = target: T10, TAK1 (Homo sapiens, UniProt O43318); assay: Kinase panel screen; assay type: biochemical; conditions: Compound I and ATP 10 μM
T10 construct: purchased Upstate USA or Invitrogen (contract screening service)

Ros = target: T11, Ros (Homo sapiens, UniProt P08922); assay: Kinase panel screen; assay type: biochemical; conditions: Compound I and ATP 10 μM
T11 construct: purchased Upstate USA or Invitrogen (commercial screening service)

ErbB4 = target: T12, ErbB4 (Homo sapiens, UniProt Q15303); assay: Kinase panel screen; assay type: biochemical; conditions: Compound I and ATP 10 μM
T12 construct: purchased Upstate USA or Invitrogen (commercial screening service)

ROCK-II = target: T13, ROCK-II (Homo sapiens, UniProt O75116); assay: Kinase panel screen; assay type: biochemical; conditions: Compound I and ATP 10 μM
T13 construct: purchased Upstate USA or Invitrogen (commercial screening service)

Axl = target: T14, Axl (Homo sapiens, UniProt P30530); assay: Kinase panel screen; assay type: biochemical; conditions: Compound I and ATP 10 μM
T14 construct: purchased Upstate USA or Invitrogen (contract screening service)

CaMKII = assay: Kinase panel screen; assay type: biochemical, rat; conditions: Compound I and ATP 10 μM
Fer = target: T15, Fer (Homo sapiens, UniProt P16591); assay: Kinase panel screen; assay type: biochemical; conditions: Compound I and ATP 10 μM
T15 construct: purchased Upstate USA or Invitrogen (contract screening service)

TBK1 = target: T16, TBK1 (Homo sapiens, UniProt Q9UHD2); assay: Kinase panel screen; assay type: biochemical; conditions: Compound I and ATP 10 μM
T16 construct: purchased Upstate USA or Invitrogen (contract screening service)

MKK4 = MKK4 (Mus musculus, UniProt P47809); assay: Kinase panel screen; assay type: biochemical; conditions: Compound I and ATP 10 μM
HIPK2 = target: T17, HIPK2 (Homo sapiens, UniProt Q9H2X6); assay: Kinase panel screen; assay type: biochemical; conditions: Compound I and ATP 10 μM
T17 construct: purchased Upstate USA or Invitrogen (commercial screening service)

PRAK = target: T18, PRAK (Homo sapiens, UniProt Q8IW41); assay: Kinase panel screen; assay type: biochemical; conditions: Compound I and ATP 10 μM
T18 construct: purchased Upstate USA or Invitrogen (contract screening service)

GSK3 3 = target: T19, GSK3 3 (Homo sapiens, UniProt P49841); assay: Kinase panel screen; assay type: biochemical; conditions: Compound I and ATP 10 μM
T19 construct: purchased Upstate USA or Invitrogen (commercial screening service)

CK2 = target: T20, CK2 (Homo sapiens, UniProt P68400); assay: Kinase panel screen; assay type: biochemical; conditions: Compound I at 1 μM and ATP at the apparent Km
T20 construct: purchased Upstate USA or Invitrogen (contract screening service)

SGK = target: T21, SGK (Homo sapiens, UniProt O00141, S422D); assay: Kinase panel screen; assay type: biochemical; conditions: Compound I and ATP 10 μM
T21 construct: purchased Upstate USA or Invitrogen (commercial screening service)

PAK4 = target: T22, PAK4 (Homo sapiens, UniProt O96013); assay: Kinase panel screen; assay type: biochemical; conditions: Compound I and ATP 10 μM
T22 construct: purchased Upstate USA or Invitrogen (commercial screening service)

EC = EC proliferation; assay type: cell-based; conditions: inhibitors at 10 μM; 24, 48, 72 h
Protocol: Inhibition of cell proliferation and signaling. (a) EC were cultured in the presence of vehicle (DMSO) or PI3K inhibitors (all at 10 μM); cell proliferation was assessed either 24 (open bar), 48 (grey bar), or 72 h (black bar) later.
Applicants therefore compared the compounds profiled in Table 1 for their effects on cell proliferation.

CDK6 = target: T23, CDK6 (Homo sapiens, UniProt Q00534); assay: Kinase panel screen; assay type: biochemical; conditions: Compound I and ATP 10 μM
T23 construct: purchased Upstate USA or Invitrogen (contract screening service)

JNK1a1 = JNK1a1 (Homo sapiens, UniProt P45983); assay: Kinase panel screen; assay type: biochemical; conditions: Compound I and ATP 10 μM
PKBy = target: T24, PKBy (Homo sapiens, UniProt Q9Y243); assay: Kinase panel screen; assay type: biochemical; conditions: read-out: Percent Control, PKBy
T24 construct: purchased Upstate USA or Invitrogen (contract screening service)

BTK = target: T25, BTK (Homo sapiens, UniProt Q06187); assay: Kinase panel screen; assay type: biochemical; conditions: Compound I and ATP 10 μM
T25 construct: purchased Upstate USA or Invitrogen (commercial screening service)

NEK6 = target: T26, NEK6 (Homo sapiens, UniProt Q9HC98); assay: Kinase panel screen; assay type: biochemical; conditions: Compound I and ATP 10 μM
T26 construct: purchased Upstate USA or Invitrogen (commercial screening service)

MINK = target: T27, MINK (Homo sapiens, UniProt Q8N4C8); assay: Kinase panel screen; assay type: biochemical; conditions: Compound I and ATP 10 μM
T27 construct: purchased Upstate USA or Invitrogen (contract screening service)

Akt2 = Akt2 (Homo sapiens, UniProt P31751); assay: Kinase panel screen; assay type: biochemical; conditions: Compound I at 1 μM and ATP at the apparent Km
ALK4 = target: T28, ALK4 (Homo sapiens, UniProt P36896); assay: Kinase panel screen; assay type: biochemical; conditions: Compound I and ATP 10 μM
T28 construct: purchased Upstate USA or Invitrogen (commercial screening service)

Plk3 = target: T29, Plk3 (Homo sapiens, UniProt Q9H4B4); assay: Kinase panel screen; assay type: biochemical; conditions: Compound I and ATP 10 μM
T29 construct: purchased Upstate USA or Invitrogen (contract screening service)

MAPKAP-K3 = target: T30, MAPKAP-K3 (Homo sapiens, UniProt Q16644); assay: Kinase panel screen; assay type: biochemical; conditions: Compound I and ATP 10 μM
T30 construct: purchased Upstate USA or Invitrogen (commercial screening service)

Hck = target: T31, Hck (Homo sapiens, UniProt P08631); assay: Kinase panel screen; assay type: biochemical; conditions: Compound I and ATP 10 μM
T31 construct: purchased Upstate USA or Invitrogen (commercial screening service)

IRAK4 = target: T32, IRAK4 (Homo sapiens, UniProt Q9NWZ3); assay: Kinase panel screen; assay type: biochemical; conditions: Compound I and ATP 10 μM
T32 construct: purchased Upstate USA or Invitrogen (contract screening service)

Abl = target: T33, Abl (Mus musculus, UniProt P00520); assay: Kinase panel screen; assay type: biochemical; conditions: Compound I and ATP 10 μM
T33 construct: purchased Upstate USA or Invitrogen (commercial screening service)

CDK1 = target: T34, CDK1 (Homo sapiens, UniProt P06493); assay: Kinase panel screen; assay type: biochemical; conditions: Compound I and ATP 10 μM
T34 construct: purchased Upstate USA or Invitrogen (commercial screening service)

EphB2 = target: T35, EphB2 (Homo sapiens, UniProt P29323); assay: Kinase panel screen; assay type: biochemical; conditions: Compound I and ATP 10 μM
T35 construct: purchased Upstate USA or Invitrogen (commercial screening service)

T6 sequence (Q04759 whole entry): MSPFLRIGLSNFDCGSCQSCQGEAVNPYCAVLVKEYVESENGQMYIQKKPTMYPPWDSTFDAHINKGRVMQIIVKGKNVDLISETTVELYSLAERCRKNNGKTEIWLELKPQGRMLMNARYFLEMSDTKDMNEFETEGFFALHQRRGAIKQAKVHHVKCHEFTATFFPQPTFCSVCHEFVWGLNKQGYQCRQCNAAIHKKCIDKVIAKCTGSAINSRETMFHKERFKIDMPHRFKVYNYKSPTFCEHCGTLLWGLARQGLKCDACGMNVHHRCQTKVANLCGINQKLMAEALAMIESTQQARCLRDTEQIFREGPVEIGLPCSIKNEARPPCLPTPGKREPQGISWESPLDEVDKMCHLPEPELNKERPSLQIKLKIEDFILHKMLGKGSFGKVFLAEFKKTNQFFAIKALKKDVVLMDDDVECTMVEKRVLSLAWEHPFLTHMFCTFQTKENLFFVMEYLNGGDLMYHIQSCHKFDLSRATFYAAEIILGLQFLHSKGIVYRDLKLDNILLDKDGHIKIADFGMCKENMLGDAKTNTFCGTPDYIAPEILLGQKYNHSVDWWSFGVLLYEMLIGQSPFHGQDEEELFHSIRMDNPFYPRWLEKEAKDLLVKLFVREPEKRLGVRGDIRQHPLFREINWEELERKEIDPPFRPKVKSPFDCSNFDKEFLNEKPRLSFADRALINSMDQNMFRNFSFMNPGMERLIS
T2 sequence (P43403 whole entry): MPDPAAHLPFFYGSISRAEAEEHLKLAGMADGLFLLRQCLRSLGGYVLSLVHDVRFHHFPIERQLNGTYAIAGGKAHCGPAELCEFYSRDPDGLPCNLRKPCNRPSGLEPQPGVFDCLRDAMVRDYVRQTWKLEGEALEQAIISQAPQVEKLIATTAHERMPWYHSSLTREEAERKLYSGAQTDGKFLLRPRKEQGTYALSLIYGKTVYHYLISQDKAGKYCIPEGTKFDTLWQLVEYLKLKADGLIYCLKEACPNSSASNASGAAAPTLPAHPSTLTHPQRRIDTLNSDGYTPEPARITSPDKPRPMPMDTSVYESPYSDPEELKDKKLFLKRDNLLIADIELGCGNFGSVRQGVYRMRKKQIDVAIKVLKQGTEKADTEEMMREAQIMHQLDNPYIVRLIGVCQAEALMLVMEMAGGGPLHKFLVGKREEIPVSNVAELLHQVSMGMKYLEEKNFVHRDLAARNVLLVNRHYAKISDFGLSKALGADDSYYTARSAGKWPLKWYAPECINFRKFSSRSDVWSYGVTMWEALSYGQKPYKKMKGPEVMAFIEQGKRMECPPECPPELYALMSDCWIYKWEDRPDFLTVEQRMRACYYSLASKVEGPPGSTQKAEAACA
T8 sequence (O14733 whole entry): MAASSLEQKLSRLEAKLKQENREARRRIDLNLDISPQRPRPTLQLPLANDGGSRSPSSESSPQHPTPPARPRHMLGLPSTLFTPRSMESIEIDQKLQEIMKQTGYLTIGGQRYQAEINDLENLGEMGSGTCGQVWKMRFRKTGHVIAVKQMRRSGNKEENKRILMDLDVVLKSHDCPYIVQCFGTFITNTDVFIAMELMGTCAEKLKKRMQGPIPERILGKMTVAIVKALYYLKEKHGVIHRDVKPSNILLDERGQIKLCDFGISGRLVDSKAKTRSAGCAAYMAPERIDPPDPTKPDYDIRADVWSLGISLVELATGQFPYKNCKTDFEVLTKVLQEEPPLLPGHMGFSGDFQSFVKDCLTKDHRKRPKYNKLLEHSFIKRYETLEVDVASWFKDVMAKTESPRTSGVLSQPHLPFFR
T9 sequence (Q63531 whole entry): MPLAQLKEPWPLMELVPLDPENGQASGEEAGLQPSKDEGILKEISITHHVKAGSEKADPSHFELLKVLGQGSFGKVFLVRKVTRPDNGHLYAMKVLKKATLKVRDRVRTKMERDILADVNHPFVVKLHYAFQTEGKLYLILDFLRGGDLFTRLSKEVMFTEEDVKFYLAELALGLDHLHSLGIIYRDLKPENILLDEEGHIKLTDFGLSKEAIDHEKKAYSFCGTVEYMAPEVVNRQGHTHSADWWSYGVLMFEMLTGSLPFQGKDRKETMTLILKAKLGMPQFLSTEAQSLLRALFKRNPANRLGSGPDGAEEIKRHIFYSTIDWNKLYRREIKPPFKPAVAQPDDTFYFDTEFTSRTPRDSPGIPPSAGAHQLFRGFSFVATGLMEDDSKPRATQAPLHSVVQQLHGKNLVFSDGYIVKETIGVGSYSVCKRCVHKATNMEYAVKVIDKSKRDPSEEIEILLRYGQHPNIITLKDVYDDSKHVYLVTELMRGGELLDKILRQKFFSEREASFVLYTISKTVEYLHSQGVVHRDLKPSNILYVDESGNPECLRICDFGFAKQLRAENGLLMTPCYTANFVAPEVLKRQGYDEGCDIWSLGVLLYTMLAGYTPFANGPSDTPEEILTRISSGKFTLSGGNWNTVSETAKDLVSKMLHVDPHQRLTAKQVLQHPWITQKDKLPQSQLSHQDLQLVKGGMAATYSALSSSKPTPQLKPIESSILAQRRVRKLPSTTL
T23 sequence (Q00534 whole entry): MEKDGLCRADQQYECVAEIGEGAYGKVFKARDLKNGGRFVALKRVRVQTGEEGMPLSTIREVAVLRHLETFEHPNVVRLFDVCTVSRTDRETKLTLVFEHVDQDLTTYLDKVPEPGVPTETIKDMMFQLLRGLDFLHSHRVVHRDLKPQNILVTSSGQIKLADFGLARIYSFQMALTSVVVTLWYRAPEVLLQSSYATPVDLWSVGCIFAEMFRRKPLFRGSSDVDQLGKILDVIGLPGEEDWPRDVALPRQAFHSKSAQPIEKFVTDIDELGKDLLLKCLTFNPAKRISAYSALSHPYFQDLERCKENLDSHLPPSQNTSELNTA
T23 sequence (P30281 whole entry partner): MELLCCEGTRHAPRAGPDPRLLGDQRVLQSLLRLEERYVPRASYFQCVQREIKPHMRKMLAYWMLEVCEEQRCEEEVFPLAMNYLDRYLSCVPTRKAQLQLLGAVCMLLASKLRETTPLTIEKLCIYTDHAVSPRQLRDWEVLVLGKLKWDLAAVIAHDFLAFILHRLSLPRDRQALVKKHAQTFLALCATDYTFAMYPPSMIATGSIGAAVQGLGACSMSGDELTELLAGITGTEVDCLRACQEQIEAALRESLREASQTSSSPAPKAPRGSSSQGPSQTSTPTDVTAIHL
T25 sequence (Q06187 whole entry): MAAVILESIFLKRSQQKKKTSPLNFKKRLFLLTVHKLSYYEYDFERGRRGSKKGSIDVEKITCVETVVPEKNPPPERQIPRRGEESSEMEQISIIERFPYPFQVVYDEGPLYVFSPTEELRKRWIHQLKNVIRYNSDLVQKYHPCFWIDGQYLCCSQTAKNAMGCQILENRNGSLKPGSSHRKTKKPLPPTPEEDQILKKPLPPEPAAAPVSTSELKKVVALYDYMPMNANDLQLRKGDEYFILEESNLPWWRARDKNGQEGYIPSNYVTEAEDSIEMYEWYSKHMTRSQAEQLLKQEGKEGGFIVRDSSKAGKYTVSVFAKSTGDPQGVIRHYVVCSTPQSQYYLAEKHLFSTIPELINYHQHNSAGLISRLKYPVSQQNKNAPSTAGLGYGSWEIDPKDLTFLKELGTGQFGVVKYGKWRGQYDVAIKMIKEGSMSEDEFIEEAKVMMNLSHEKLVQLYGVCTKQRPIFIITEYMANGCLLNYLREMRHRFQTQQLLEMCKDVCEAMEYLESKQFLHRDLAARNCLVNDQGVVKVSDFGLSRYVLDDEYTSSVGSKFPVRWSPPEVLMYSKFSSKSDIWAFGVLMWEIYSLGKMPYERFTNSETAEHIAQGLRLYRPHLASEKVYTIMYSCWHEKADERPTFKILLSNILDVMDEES
T29 sequence (Q9H4B4 whole entry): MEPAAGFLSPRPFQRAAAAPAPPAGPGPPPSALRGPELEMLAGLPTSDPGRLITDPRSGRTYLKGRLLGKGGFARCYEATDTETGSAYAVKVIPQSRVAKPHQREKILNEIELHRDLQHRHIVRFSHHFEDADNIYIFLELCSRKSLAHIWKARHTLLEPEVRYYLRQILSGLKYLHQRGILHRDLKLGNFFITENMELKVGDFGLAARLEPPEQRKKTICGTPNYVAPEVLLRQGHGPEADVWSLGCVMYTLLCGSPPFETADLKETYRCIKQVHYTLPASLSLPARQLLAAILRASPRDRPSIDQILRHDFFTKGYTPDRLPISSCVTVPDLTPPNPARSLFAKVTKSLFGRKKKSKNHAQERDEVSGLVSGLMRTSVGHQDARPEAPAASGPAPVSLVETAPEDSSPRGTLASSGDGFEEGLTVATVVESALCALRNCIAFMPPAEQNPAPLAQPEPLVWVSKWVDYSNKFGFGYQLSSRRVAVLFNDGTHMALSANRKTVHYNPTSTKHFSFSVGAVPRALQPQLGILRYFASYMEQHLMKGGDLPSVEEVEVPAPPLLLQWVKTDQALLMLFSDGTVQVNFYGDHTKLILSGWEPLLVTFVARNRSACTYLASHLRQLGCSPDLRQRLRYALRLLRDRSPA
T21 sequence (O00141 60-431 S422D limits assumed): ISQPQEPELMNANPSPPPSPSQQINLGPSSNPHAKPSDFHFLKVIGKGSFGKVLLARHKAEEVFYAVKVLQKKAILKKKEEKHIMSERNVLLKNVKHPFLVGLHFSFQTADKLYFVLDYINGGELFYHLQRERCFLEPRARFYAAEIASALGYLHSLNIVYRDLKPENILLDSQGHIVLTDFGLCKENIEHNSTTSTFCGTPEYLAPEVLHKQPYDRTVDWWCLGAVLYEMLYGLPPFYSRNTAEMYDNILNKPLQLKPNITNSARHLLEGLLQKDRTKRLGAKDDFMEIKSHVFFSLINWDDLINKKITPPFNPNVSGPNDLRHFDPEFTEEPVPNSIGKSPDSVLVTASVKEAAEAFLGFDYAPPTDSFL

With Nc1nc(N)c2nc(-c3cccc(O)c3)c(-c3cccc(O)c3)nc2n1 [Compound I, 6,7-bis-(3-hydroxyphenyl)-pteridine-2,4-diamine] the “Percent Control, JAK3” value (JAK3) was 99%, the “Percent Control, ZAP-70” value (ZAP-70) was 96% and the “Percent Control, FGFR1” value (FGFR1) was 75%. The “time for which a single i.v. administration reduced edema formation” value (VEGF-induced edema; Miles assay, varied time between compound and agonist challenge, data not shown) was “at least 4 hours”, the “VEGF-induced vascular permeability / edema formation” value (VEGF-induced edema; rats, Compound I pretreatment (1 mg/kg in FIG. 4)) was “inhibited; also recorded: reduced edema formation” and the “Percent Control, SAPK2a” value (SAPK2a) was 55%. For the same compound, the “Percent Control, MAPK3*” value (MAPK3) was 99%, the “Percent Control, PKC0” value (PKC0) was 73% and the “Percent Control, IGF-1R” value (IGF-1R) was 104%. For the same compound, the “Percent Control, MKK7b” value (MKK7b) was 79%, the “Percent Control, Rsk1 (r)” value (Rsk1) was 86% and the “Percent Control, TAK1” value (TAK1) was 65%. The “Percent Control, Ros” value (Ros) was 90%, the “Percent Control, ErbB4” value (ErbB4) was 40% and the “Percent Control, ROCK-II” value (ROCK-II) was 81%. For the same compound, the “Percent Control, Axl” value (Axl) was 76%, the “Percent Control, CaMKII (r)” value (CaMKII) was 90% and the “Percent Control, Fer” value (Fer) was 80%. The “Percent Control, TBK1” value (TBK1) was 89%, the “Percent Control, MKK4 (m)” value (MKK4) was 57% and the “Percent Control, HIPK2” value (HIPK2) was 87%. The “Percent Control, PRAK” value (PRAK) was 63%, the “Percent Control, GSK3 3” value (GSK3 3) was “p70S6K Percent” and the “Percent Control, CK2*” value (CK2) was 96%. The “Percent Control, SGK” value (SGK) was 95%, the “Percent Control, PAK4” value (PAK4) was 78% and the “effect on EC proliferation” value (EC) was “no effects”. For the same compound, the “Percent Control, CDK6” value (CDK6) was 83%, the “Percent Control, JNK1a1” value (JNK1a1) was 80% and the remaining activity at 10 µM (PKBy) was 98%. The “Percent Control, BTK” value (BTK) was 75%, the “Percent Control, NEK6” value (NEK6) was 97% and the “Percent Control, MINK” value (MINK) was 88%. The “Percent Control, Akt2*” value (Akt2) was 103%, the “Percent Control, ALK4” value (ALK4) was 91% and the “Percent Control, Plk3” value (Plk3) was 97%. For the same compound, the “Percent Control, MAPKAP-K3” value (MAPKAP-K3) was 93%, the “Percent Control, Hck” value (Hck) was 67% and the “Percent Control, IRAK4” value (IRAK4) was 89%. For the same compound, the “Percent Control, Abl (m)” value (Abl) was 66%, the “Percent Control, CDK1” value (CDK1) was 54% and the “Percent Control, EphB2” value (EphB2) was 56%.
